# Test results published in patent publication US20090325952A1, “PYRAZOLO[3,4-B]PYRIDINE COMPOUNDS, AND THEIR USE AS PDE4 INHIBITORS” (Glaxo Group Limited, priority 2006, published 2009).
# Tests used:
# PDE3 (from bovine aorta) = assay: Inhibition of PDE3 activity (FP or SPA assays); format: biochemical; conditions: selectivity PDE4B over PDE3
# Source text: PDE3 can be purified from bovine aorta as described by H. Coste and P. Grondin, “Characterisation of a novel potent and specific inhibitor of type V phosphodiesterase”, Biochem. Pharmacol., 1995, 50, 1577-1585.
# (§1) The ability of compounds to inhibit catalytic activity at PDE4B or 4D (human recombinant), PDE3 (from bovine aorta), PDE5 (human recombinant) or PDE6 (from bovine retina) can optionally be determined by Scintillation Proximity Assay (SPA) in a 96-well format.
# Test compounds (as a solution in DMSO, suitably about 2 microlitre (ul) volume of DMSO solution) are preincubated at ambient temperature (room temperature, e.g. 19-23° C.) in Wallac Isoplates (code 1450-514) with PDE enzyme in 50 mM Tris-HCl buffer pH 7.5, 8.3 mM MgCl2, 1.7 mM EGTA, 0.05% (w/v) bovine serum albumin for 10-30 minutes (usually 30 minutes). The enzyme concentration is adjusted so that no more than 20% hydrolysis of the substrate defined below occurs in control wells without compound, during the incubation. […] Bound radioactive product is measured using a WALLAC TRILUX 1450 Microbeta scintillation counter. […] Curves are analysed using ActivityBase and XLfit (ID Business Solutions Limited, 2 Ocean Court, Surrey Research Park, Guildford, Surrey GU2 7QB, United Kingdom) Results are expressed as pIC50 values. […]
# [1] = target: T1, PDE6 (from bovine retina) (Bos taurus, UniProt P11541+P23439); assay: Inhibition of PDE6 activity (FP or SPA assays); format: biochemical; conditions: selectivity PDE4B over PDE6
# T1 construct: PDE6 can be purified from bovine retina; from tissue; host or cells: bovine retina
# T1 sequence (P11541 2-856 limits assumed): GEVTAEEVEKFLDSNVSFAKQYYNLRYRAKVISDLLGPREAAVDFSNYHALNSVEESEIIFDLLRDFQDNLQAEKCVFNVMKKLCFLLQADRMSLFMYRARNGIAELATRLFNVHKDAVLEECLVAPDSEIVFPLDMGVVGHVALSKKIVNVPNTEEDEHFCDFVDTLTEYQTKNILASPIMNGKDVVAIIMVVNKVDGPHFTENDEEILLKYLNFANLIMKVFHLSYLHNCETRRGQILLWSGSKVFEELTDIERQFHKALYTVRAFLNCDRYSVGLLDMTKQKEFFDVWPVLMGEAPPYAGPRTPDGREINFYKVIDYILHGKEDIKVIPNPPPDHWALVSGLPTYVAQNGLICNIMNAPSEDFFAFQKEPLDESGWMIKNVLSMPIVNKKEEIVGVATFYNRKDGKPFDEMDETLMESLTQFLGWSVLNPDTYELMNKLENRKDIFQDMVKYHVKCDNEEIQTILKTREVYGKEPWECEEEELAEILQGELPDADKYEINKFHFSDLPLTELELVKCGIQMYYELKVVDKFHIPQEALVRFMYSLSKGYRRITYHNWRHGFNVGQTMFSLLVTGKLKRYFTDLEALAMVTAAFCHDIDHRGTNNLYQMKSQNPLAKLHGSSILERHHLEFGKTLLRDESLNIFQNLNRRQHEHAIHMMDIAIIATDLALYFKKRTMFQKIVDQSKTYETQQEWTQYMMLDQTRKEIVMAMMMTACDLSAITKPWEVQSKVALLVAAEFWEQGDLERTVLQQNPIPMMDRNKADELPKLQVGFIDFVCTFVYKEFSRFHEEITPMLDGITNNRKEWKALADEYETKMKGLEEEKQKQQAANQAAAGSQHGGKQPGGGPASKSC
# T1 sequence (P23439 2-850 limits assumed): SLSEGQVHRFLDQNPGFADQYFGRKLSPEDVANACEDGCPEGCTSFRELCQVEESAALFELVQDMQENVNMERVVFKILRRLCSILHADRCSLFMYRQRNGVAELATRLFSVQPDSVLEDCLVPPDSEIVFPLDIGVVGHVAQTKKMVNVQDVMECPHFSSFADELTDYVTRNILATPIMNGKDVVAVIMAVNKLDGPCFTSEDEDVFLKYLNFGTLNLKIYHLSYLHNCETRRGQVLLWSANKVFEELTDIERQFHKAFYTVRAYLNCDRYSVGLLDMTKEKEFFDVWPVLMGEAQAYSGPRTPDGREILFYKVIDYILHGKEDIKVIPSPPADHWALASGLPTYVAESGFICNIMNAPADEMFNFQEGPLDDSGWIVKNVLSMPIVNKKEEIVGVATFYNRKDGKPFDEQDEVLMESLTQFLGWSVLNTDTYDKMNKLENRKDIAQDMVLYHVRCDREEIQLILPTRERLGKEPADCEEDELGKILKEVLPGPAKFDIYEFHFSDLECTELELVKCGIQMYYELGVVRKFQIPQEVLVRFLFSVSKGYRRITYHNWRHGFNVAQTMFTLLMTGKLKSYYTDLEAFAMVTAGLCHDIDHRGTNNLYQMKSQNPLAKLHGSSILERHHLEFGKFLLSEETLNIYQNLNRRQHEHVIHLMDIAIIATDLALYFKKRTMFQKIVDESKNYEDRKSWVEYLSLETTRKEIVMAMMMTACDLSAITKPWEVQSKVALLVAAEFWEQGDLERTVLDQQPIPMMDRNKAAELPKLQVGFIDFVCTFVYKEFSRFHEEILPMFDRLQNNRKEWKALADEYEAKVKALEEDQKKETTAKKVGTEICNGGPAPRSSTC
# Source text: PDE6 can be purified from bovine retina as described by: P. Catty and P. Deterre, “Activation and solubilization of the retinal cGMP-specific phosphodiesterase by limited proteolysis”, Eur. J. Biochem., 1991, 199, 263-269; A. Tar et al. “Purification of bovine retinal cGMP phosphodiesterase”, Methods in Enzymology, 1994, 238, 3-12; and/or D. Srivastava et al. “Effects of magnesium on cyclic GMP hydrolysis by the bovine retinal rod cyclic GMP phosphodiesterase”, Biochem. J, 1995, 308, 653-658.
# as §1
# Test compounds (as a solution in DMSO, suitably about 2 microlitre (ul) volume of DMSO solution) are preincubated at ambient temperature (room temperature, e.g. 19-23° C.) in Wallac Isoplates (code 1450-514) with PDE enzyme in 50 mM Tris-HCl buffer pH 7.5, 8.3 mM MgCl2, 1.7 mM EGTA, 0.05% (w/v) bovine serum albumin for 10-30 minutes (usually 30 minutes). The enzyme concentration is adjusted so that no more than 20% hydrolysis of the substrate defined below occurs in control wells without compound, during the incubation. […] Bound radioactive product is measured using a WALLAC TRILUX 1450 Microbeta scintillation counter. […]
structure (smiles),measurement,setting,value
"CCc1nc2c(cnn2CC)c(NC2CCOCC2)c1CNC(=O)c1ccc(NC(=O)CCCCCCCN(C)CCO)cc1 [Example 1B, N-{[1,6-diethyl-4-(tetrahydro-2H-pyran-4-ylamino)-1H-pyrazolo[3,4-b]pyridin-5-yl]methyl}-4-({8-[(2-hydroxyethyl)(methyl)amino]octanoyl}amino)benzamide]",PDE4B inhibition compared with PDE3 inhibition (pIC50 values),PDE3 (from bovine aorta),"inhibit PDE4B more strongly than they inhibit PDE3, PDE5 and PDE6"
same,PDE4B inhibition compared with PDE6 inhibition (pIC50 values),[1],"inhibit PDE4B more strongly than they inhibit PDE3, PDE5 and PDE6"
